Data from US7410975B2, “Small molecule toll-like receptor (TLR) antagonists” (Coley Pharmaceutical Group, Inc., priority 2003, dated 2008).
Where a name gives a salt, the structure may show the parent alone.

Target: T1, human TLR9 (hTLR9) (Homo sapiens, UniProt Q9NR96)
T1 construct: expressed in transfected cells
T1 sequence (Q9NR96 26-1032): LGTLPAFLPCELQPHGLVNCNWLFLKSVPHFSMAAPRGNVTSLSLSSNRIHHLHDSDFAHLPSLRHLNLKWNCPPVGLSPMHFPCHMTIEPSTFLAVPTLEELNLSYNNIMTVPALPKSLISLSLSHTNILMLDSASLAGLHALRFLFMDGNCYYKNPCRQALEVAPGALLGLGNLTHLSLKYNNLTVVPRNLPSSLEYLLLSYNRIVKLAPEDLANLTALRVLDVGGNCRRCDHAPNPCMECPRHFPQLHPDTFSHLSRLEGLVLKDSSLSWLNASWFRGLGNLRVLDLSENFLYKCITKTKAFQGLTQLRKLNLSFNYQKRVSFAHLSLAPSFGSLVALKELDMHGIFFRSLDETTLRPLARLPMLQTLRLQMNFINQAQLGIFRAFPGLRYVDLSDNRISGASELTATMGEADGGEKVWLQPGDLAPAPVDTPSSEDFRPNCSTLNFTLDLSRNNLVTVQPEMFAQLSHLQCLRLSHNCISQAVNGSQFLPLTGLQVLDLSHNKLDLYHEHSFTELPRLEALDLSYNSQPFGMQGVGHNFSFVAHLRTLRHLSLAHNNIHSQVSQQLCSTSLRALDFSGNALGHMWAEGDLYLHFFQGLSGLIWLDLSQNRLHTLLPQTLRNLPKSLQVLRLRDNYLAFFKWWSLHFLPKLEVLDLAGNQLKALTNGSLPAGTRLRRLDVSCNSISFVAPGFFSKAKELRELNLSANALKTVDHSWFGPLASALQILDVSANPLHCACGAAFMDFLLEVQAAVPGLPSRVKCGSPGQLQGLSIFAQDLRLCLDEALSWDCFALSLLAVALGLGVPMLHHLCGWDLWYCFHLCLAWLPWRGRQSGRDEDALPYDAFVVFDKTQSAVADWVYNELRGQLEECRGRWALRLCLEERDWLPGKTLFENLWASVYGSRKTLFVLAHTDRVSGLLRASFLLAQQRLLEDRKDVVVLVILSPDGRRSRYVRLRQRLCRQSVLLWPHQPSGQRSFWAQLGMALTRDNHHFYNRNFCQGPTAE
Assay: Antagonist screen, hTLR9-NFκB-293 cells, 6× NF-κB-luciferase reporter, with EC50 of CpG ODN 2006
Type: cell-based
Conditions: for hTLR9 (inhibitory effect, antagonist score): compound at 0.5, 5, 50 μg/ml, EC50 concentration of CpG ODN 2006, 16 h, NF-κB-luciferase; for inhibition of TLR9 signaling in response to CpG ODN 2006 (FIG. 1): FIG. 1, graph
Experimental: Candidate small molecules for initial screening were obtained from a commercially available library of 880 off-patent small molecules selected for structural diversity and proven bioavailability in humans (Prestwick Chemical Library). […] Results were measured as fold induction over baseline luciferase activity measured in the absence of ODN 2006 and compared to fold induction over baseline in the presence of the EC50 concentration of ODN 2006 alone. […] Additional screening was performed in like manner using additional small molecules selected from another library or specifically prepared for this purpose.
The method is described in greater detail as follows. The cells for each individual cell clone (hTLR3-NFκB-293, hTLR7-NFκB-293, hTLR8-NFκB-293 and hTLR9-NFκB-293) were counted and seeded one day before the stimulation at 1.5×10^4 cells per well in 96-well cell culture plates. To become adherent the cells were incubated after seeding overnight at 37° C. in 5% CO2 humidified air.
The screen for each compound was performed at the same time for all of the receptors TLR3, TLR7, TLR8 and TLR9. Up to fifteen test compounds, each assayed in duplicate at each of three different final concentrations (0.5 μg/ml, 5 μg/ml, and 50 μg/ml), were used for 16 h cell stimulation on a single multiwell culture plate. A 4× final concentration master plate was created to prepare the different test compounds before they were added to the cells.
Controls were added as duplicates individually for each cell clone on the cell culture plate. Positive controls were used as follows (final concentrations): 50 μg/ml poly(I:C) for hTLR3-NFκB-293; 8 μM resiquimod (R848) for hTLR7-NFκB-293; 30 μM R848 for hTLR8-NFκB-293; and 2.5 μM CpG-ODN 2006 for hTLR9-NFκB-293. Media alone was used as negative control. After addition of controls and small molecules, the cell clones were additionally stimulated with the EC50 concentration of the appropriate receptor-specific ligand.
The mean value of wells H2 and H5 (each with cells and EC50 concentration of the appropriate receptor-specific ligand) divided by the mean of wells H3 and H6 (each with cells alone) yielded the baseline response (i.e., fold induction of luciferase activity) to EC50 concentration of the appropriate receptor-specific ligand.
After 16 h stimulation the supernatant was removed and the cells treated with lysis buffer and stored at −80° C. before measuring.
For each screen result a graphical documentation was performed.
The baseline result (measured with addition of the EC50 concentration of the receptor-specific ligand) for each cell culture plate was measured as described above. Antagonistic effects were measured by down regulation compared to the baseline. Antagonists were scored as follows: • 13: compounds for which there was clear down regulation at 0.5 μg/ml, 5 μg/ml, and 50 μg/ml; • 12: compounds for which there was clear down regulation at 5 μg/ml and 50 μg/ml; • 11: compounds for which there was clear down regulation only at 50 μg/ml; • —: compounds for which there was no clear down regulation even at 50 μg/ml. Agonists

| Structure (SMILES) | hTLR9 (inhibitory effect, antagonist score) | inhibition of TLR9 signaling in response to CpG ODN 2006 (FIG. 1) |
| --- | --- | --- |
| CC(=O)c1ccc2c(c1)N(CCCN(C)C)c1ccccc1S2.O=C(O)/C=C\C(=O)O [compound 576, Acetopromazinemaleate salt] | 12 (compounds for which there was clear down regulation at 5 μg/ml and 50 μg/ml) |  |
| COC(=O)C1=CO[C@@H](C)[C@@H]2CN3CCc4c([nH]c5ccccc45)[C@@H]3C[C@H]12 [compound 593, Tetrahydroalstonine] | 11 (compounds for which there was clear down regulation only at 50 μg/ml) |  |
| CC[C@]12CCCN3CCc4c(n(c5ccccc45)C(=O)C1)[C@@H]32 [compound 607, Eburnamonine] | — (compounds for which there was no clear down regulation even at 50 μg/ml) |  |
| Cc1nccc2c1[nH]c1cc(O)ccc12.Cl [compound 612, Harmol hydrochloride monohydrate] | 12 (compounds for which there was clear down regulation at 5 μg/ml and 50 μg/ml) |  |
| COc1ccc2c(c1)[nH]c1c(C)nccc12.Cl [compound 613, harmine hydrochloride] | 13 (compounds for which there was clear down regulation at 0.5 μg/ml, 5 μg/ml, and 50 μg/ml) | concentration-dependent inhibition |
| Cc1c2ccncc2c(C)c2c1[nH]c1ccccc12 [compound 614, Ellipticine] | 13 (compounds for which there was clear down regulation at 0.5 μg/ml, 5 μg/ml, and 50 μg/ml) |  |
| Cc1nccc2c1[nH]c1ccccc12 [compound 620, Harmane hydrochloride] | 12 (compounds for which there was clear down regulation at 5 μg/ml and 50 μg/ml) |  |
| COc1ccc2[nH]c3c(c2c1)CCN=C3C [compound 621, Methoxy-6-harmalan] | 12 (compounds for which there was clear down regulation at 5 μg/ml and 50 μg/ml) |  |
| CC[C@]12CCCN3CCc4c(n(c5ccccc45)[C@](O)(C(=O)OC)C1)[C@@H]32 [compound 636, Epivincamine] | — (compounds for which there was no clear down regulation even at 50 μg/ml) |  |
| Cl.Cl.c1ccc2c3c([nH]c2c1)C1C2CCC(C4CCCNC42)N1CC3 (stereo not shown) [compound 685, Nitrarine dihydorchloride] | 11 (compounds for which there was clear down regulation only at 50 μg/ml) |  |
| CN(C)CCCN1c2ccccc2Sc2ccccc21.Cl [compound 693, Promazinehydrochloride] | 12 (compounds for which there was clear down regulation at 5 μg/ml and 50 μg/ml) |  |
| CN1CCC(OC(c2ccccc2)c2ccccc2)CC1.Cl [compound 707, Diphenylpyralinehydrochloride] | 12 (compounds for which there was clear down regulation at 5 μg/ml and 50 μg/ml) |  |
| CCCC(C(=O)OCCN(CC)CC)(c1ccccc1)c1ccccc1.Cl [compound 778, Proadifen hydrochloride] | 11 (compounds for which there was clear down regulation only at 50 μg/ml) |  |
| Cl.Clc1ccc(C(OCCN2CCCCC2)c2ccccc2)cc1 (stereo not shown) [compound 793, Cloperastinehydrochloride] | 12 (compounds for which there was clear down regulation at 5 μg/ml and 50 μg/ml) |  |
| COc1ccc2c(c1)N(CC(C)CN(C)C)c1ccccc1S2.O=C(O)/C=C\C(=O)O (stereo not shown) [compound 797, Methotrimeprazinemaleat salt] | — (compounds for which there was no clear down regulation even at 50 μg/ml) |  |
| CS(=O)(=O)O.OC(CCN1CCCCC1)(c1ccccc1)c1ccccc1 [compound 799, Pridinolmethanesulfonate salt] | 11 (compounds for which there was clear down regulation only at 50 μg/ml) |  |
| C[N+]12CCC(CC1)C(OC(=O)C(O)(c1ccccc1)c1ccccc1)C2.[Br-] (stereo not shown) [compound 822, Clidinium bromide] | 12 (compounds for which there was clear down regulation at 5 μg/ml and 50 μg/ml) |  |
| Clc1ccc(C(c2ccccc2Cl)C(Cl)Cl)cc1 (stereo not shown) [compound 833, Mitotane] | 12 (compounds for which there was clear down regulation at 5 μg/ml and 50 μg/ml) |  |
| CCN(CC)C(C)CN1c2ccccc2Sc2ccccc21.Cl (stereo not shown) [compound 840, Ethopropazinehydrochloride] | 11 (compounds for which there was clear down regulation only at 50 μg/ml) |  |
| CC(CN(C)C)CN1c2ccccc2Sc2ccccc21.CC(CN(C)C)CN1c2ccccc2Sc2ccccc21.O=C(O)C(O)C(O)C(=O)O (stereo not shown) [compound 842, Trimeprazine tartrate] | — (compounds for which there was no clear down regulation even at 50 μg/ml) |  |
| COC(=O)[C@H]1[C@H]2C[C@@H]3c4[nH]c5cc(OC)ccc5c4CCN3C[C@H]2C[C@@H](OC(=O)c2cc(OC)c(OC)c(OC)c2)[C@@H]1OC [compound 875, Reserpine] | 12 (compounds for which there was clear down regulation at 5 μg/ml and 50 μg/ml) |  |
| OCc1cc2c(cn1)[nH]c1ccccc12 [compound 878, 3-hydroxymethyl-beta-carboline] | 12 (compounds for which there was clear down regulation at 5 μg/ml and 50 μg/ml) | concentration-dependent inhibition |
| O=C(O)c1cc(C(c2ccc(O)c(C(=O)O)c2)C(Cl)(Cl)Cl)ccc1O [compound 884] | — (compounds for which there was no clear down regulation even at 50 μg/ml) |  |
| CN(CCO)C(=O)c1cccc2c1-c1ccccc1C2=O [compound 890] | — (compounds for which there was no clear down regulation even at 50 μg/ml) |  |
| COC(=O)c1cccc2c1-c1ccccc1/C2=N/O [compound 904] | 13 (compounds for which there was clear down regulation at 0.5 μg/ml, 5 μg/ml, and 50 μg/ml) |  |
| O=C(O)c1ccccc1NC1CC=CC2=C1C(=O)c1ccccc1C2=O (stereo not shown) [compound 917] | — (compounds for which there was no clear down regulation even at 50 μg/ml) |  |
| O=C(O)c1cccc2c1/C(=N/O)c1ccccc1-2 [compound 918] | — (compounds for which there was no clear down regulation even at 50 μg/ml) |  |
| CCCCOC(=O)c1cc([N+](=O)[O-])cc2c1-c1cc(CO)c([NH+]([O-])O)cc1C2=C(C#N)C#N (stereo not shown) [compound 939] | 11 (compounds for which there was clear down regulation only at 50 μg/ml) |  |
| O=C(O)c1cccc2c1-c1ccccc1/C2=N/Nc1ccc([N+](=O)[O-])cc1[N+](=O)[O-] [compound 944] | — (compounds for which there was no clear down regulation even at 50 μg/ml) |  |
